Literature values as cited in PMC4853309 (Protein expression and purification, 2015).

Biological target: NprR
Conditions: read-out: estimated binding affinity (KD); cited from earlier work

Substance: SKPDIVG [NprX7]
- Kd: ~50 nM
